Reference: patent US20030216330A1, “Parenteral, intravenous, and oral administration of oxazolidinones for treating diabetic foot infections” (PHARMACIA & UPJOHN, priority 2002, published 2003)

Key:
diabetic foot infection [1] = experiment: Example 3: parenteral treatment of a human with a diabetic foot infection; assay type: in vivo; settings: 600 mg parenteral, two times daily for 7-28 days; person
Experimental: A 70 kilo […] with a history of diabetes and infected foot ulcerations, also known as diabetic foot, is treated with a parenteral preparation of 600 mg (S)-N-[[3-[3-fluoro-4-[4-(morpholinyl)[…]]-2-oxo-5-oxazolidinyl]methyl]acetamide. The preparation is administered two times daily for 7-28 days. The patient is evaluated by clinical observations and with x-rays for osteomyelitis, including with a “probe-to bone” test and a bone biopsy if the patient has an open wound.

isolated pathogens = experiment: Resistance of pathogens isolated in the trial to study medication; settings: at baseline or developed during the trial
Excerpt: (§1) Resistance to ampicillin/sulbactam was documented in 1 S. aureus isolate.

[2] = tested on: baseline gram-positive pathogen; experiment: Microbiological success rate in the diabetic foot infection trial; assay type: in vivo, human
Excerpt: (§2) The clinically evaluable population comprised 317 patients, most of whom were male and white with a mean age of 63 years old. Patients with critical limb ischemia were excluded, but those with osteomyelitis could be included. […] Treatment was for 7-28 days with the mean treatment duration shown below in Table 1. Patients could be switched to PO therapy at the investigator's discretion.
as §1

[3] = tested on: aerobic gram positive bacteria; settings: including streptococci, MRSA and VRE; cited from earlier work
[4] = tested on: Staphylococcus agalactiae; experiment: Clinical outcome by baseline pathogen (MITT population); assay type: in vivo; settings: baseline pathogen S. agalactiae
Excerpt: as §2
(§3) The most common baseline pathogens were S. aureus (158 isolates, 31 of which were methicillin-resistant S. aureus (MRSA), coagulase-negative staphylococci (65), enterococci (60) and Streptococcus agalactiae (52). To cover methicillin-resistant S. aureus in the aminopenicillin regimen, IV vancomycin (1 g every 12 h or per dosing guidelines) was added to the amino/β-LI treated patients with MRSA isolated from the study wound. To cover possible resistant gram-negative rods in either regimen, IV aztreonam (1-2 g, IV, every 8-12 h) was permitted in both treatment arms for suspected/documented gram-negative pathogens. This is shown below in Table 2.

diabetic foot infection [5] = experiment: Open-label, comparator-controlled trial in patients with diabetic foot infection: clinical cure; assay type: in vivo, human
Excerpt: as §2, §3
Infections were defined by clinical signs and symptoms and categorized as cellulites, deep soft tissue infections, infected ulcer, septic arthritis, paronychia, abscess or osteomyelitis. […] The most common types (sometimes combined) of infections were: ulcers (78%); cellulitis (45%); deep soft tissue (15%); paronychia (6%). Most patients in both arms were treated as outpatients (66%) with only oral therapy (73%) and with a single agent (87%). Clinical characteristics of the infected sites at baseline were similar in the treatment groups; most common were tenderness (97%), induration (95%), local warmth (92%), non-purulent drainage (82%) and erythema (47%).
Debridement and other surgical procedures (short of complete resection/amputation) were allowed and wounds were off-loaded (mechanical stress on the wounded area was avoided) as needed. There were no significant differences in adverse events in the two treatment arms.

What does the source list for CC(=O)NC[C@H]1CN(c2ccc(N3CCOCC3)c(F)c2)C(=O)O1 [Linezolid, (S)-N-[[3-[3-fluoro-4-(4-morpholinyl)phenyl]-2-oxo-5-oxazolidinyl]methyl]acetamide]?
clinical observation of the ulcerated area after the course of treatment (diabetic foot infection [1]): tissue destruction in the ulcerated area has visibly ceased and tissue repair has begun; resistance of isolated pathogens to the study drug (isolated pathogens): None of the isolated pathogens was resistant; microbiological success rates ([2]; microbiologically evaluable (ME) patients): 72.2%; Microbiol. Efficacy (% Efficacy of the Evaluatable Population) ([2]; microbiologically evaluable population, 212 patients): 72%; antibacterial activity [3]: active against almost all aerobic gram positive bacteria; clinical cure rate versus comparator [4]: significantly higher clinical cure rate; Clinical Efficacy (% Efficacy of the Evaluatable Population) (diabetic foot infection [5]; clinically evaluable population, 317 patients): 83%; clinical outcome versus amino/β-LI (diabetic foot infection [5]; infected ulcers and non-osteomyelitis cases): clinically superior; clinically cured patients (diabetic foot infection [5]; infected ulcers, FIG. 2): 81.4%; Clinical cure rates (diabetic foot infection [5]; intent-to-treat (ITT) and clinically evaluable (CE) populations, FIG. 1): comparable; overall clinical and micro-biological outcomes versus amino/β-LI (diabetic foot infection [5]; mostly given alone, PO, to outpatients): at least as effective overall as amino/β-LI; clinical cure rate (diabetic foot infection [5]; patients with osteomyelitis (n=60)): 61.0%; clinical cure rate (diabetic foot infection [5]; patients without osteomyelitis): 86%
